Where two headings read alike, the source gives them in different places.
Legend:
A431 (epidermoid) = experiment: MTT cytotoxicity assay, A431; assay type: cell-based; conditions: Homo sapiens, read-out: IC50 (nM) A431
Method: (§1) The cytotoxicity potential of the compounds of the invention 16c-h was compared with the comparative compounds 16a, 16b and GWL-78 in a number of tumour cell lines and the non-cancer cell line WI38 after 96 hours exposure using the MTT (3-(4,5-Dimethylthiazol-2-yl)-2,5-diphenyltetrazolium bromide) colorimetric assay, as described below.
(§2) A panel of several types of human cancer cell lines including epidermoid (A431), lung (A549), ovarian (A2780) and breast (MCF7 and MDAMB-231), as well as the non-tumour cell line WI38, were used to determine the cytotoxicity of the compounds. The cells were grown in normal conditions at 37° C. under a 5% CO2 humidified atmosphere, either in Dulbecco's Modified Eagle Medium or Modified Eagle Medium (depending on the cell line), supplemented with 10% fetal bovine serum (Biosera, UK), 1% L-glutamine, 1% non-essential amino acids and 0.05% hydrocortisone (Gibco, Invitrogen, USA). Cells were then seeded into 96-well plates in a total volume of 160 μl, and allowed to reach a 30-40% degree of confluence before starting the experiment. The ligands were dissolved in sterilized ultrapure water at a maximum concentration of 100 μM, and serial decimal dilutions prepared. These were added to the cells in a volume of 40 μl. After 96 hours of continuous exposure to each ligand, the cytotoxicity was determined by the MTT (3-(4,5-Dimethylthiazol-2-yl)-2,5-diphenyltetrazolium bromide) (Lancaster Synthesis Ltd, UK) colorimetric assay (Skehan P, S. R., et al., Journal of the National Cancer Institute 1990, 82, 1107). Absorbance was quantified by spectrophotometry at A=570 nm (ELx808, Bio-Tek Instruments, Inc., USA). IC50 values were calculated by a dose-response analysis using the Origin 6.0™ software.

MCF7 (breast) = experiment: MTT cytotoxicity assay, MCF7; assay type: cell-based; conditions: Homo sapiens, read-out: IC50 (nM) MCF7
Method: as §1, §2

Mia Paca 2 = experiment: MTT cytotoxicity assay, Mia Paca 2; assay type: cell-based; conditions: Homo sapiens, read-out: IC50 (nM) Mia Paca 2
Method: as §1, §2

MDAMB-231 (breast) = experiment: MTT cytotoxicity assay, MDAMB-231; assay type: cell-based; conditions: Homo sapiens, read-out: IC50 (nM) MDAMB-231
Method: as §1, §2

primary CLL cells = experiment: Annexin V/propidium iodide flow cytometry assay in primary CLL cells; assay type: cell-based; conditions: CLL cell
Method: The cytotoxicity potential of the compounds of the invention 16c-h was also compared with the comparative compounds 16a, 16b and GWL-78 in a primary CLL cell lines using the Annexin V assay (van Engeland, M, et al., Cytometry 1998, 31, 1-9), as described below.
Freshly isolated peripheral blood CLL cells (1×10^8 mL^−1) were cultured in RPMI medium (Invitrogen, Paisley, U.K.) supplemented with 100 U/mL penicillin, […] streptomycin, and 10% fetal calf serum. The cells were incubated at 37° C. in a humidified 5% CO2 atmosphere in the presence of each compound. All compounds were dissolved in DMSO and were evaluated in serial dilutions against the primary CLL cells. In addition, control cultures were carried out to which no drug was added. The cytotoxic effects of the compounds were quantified using an annexin V/propidium iodide flow cytometry assay (Bender Medsystems, Vienna, Austria). All assays were performed in duplicate, and LD50 values were calculated from sigmoidal dose-response curves using the Prism 6.0 software (Graphpad Software Inc., San Diego, Calif.). The sigmoidal dose-response curves were derived by plotting log [compound concentration] against the percentage apoptosis induced by that concentration. A wide range of concentrations were used to establish the biologically active range for each individual compound.

A549 (lung) = experiment: MTT cytotoxicity assay, A549; assay type: cell-based; conditions: Homo sapiens, read-out: IC50 (nM) A549
Method: as §1, §2

A2780 (ovarian) = experiment: MTT cytotoxicity assay, A2780; assay type: cell-based; conditions: Homo sapiens, read-out: IC50 (nM) A2780
Method: as §1, §2

WI38 = experiment: MTT cytotoxicity assay, non-tumour cell line WI38; assay type: cell-based; conditions: Homo sapiens, read-out: IC50 (nM) WI38
Method: as §1, §2

[1] = MTD (maximum tolerated dose) study, intraperitoneal dosing; assay type: in vivo, mouse; conditions: Swiss-Webster mice, IP, 400 μg/Kg/day
Method: Initially a small scale study was carried out to determine the MTD (maximum tolerated dose) in Swiss-Webster mice using intraperitoneal dosing (IP). […] As 16f provided a marginally better toxicity profile in the MTD study, it was decided to carry out more extensive in vivo tumour xenograft studies on this molecule.

DNA = conditions: cited from earlier work

COC(=O)c1cc(-c2ccc(NC(=O)CCCOc3cc4c(cc3OC)C(=O)N3CCC[C@H]3C=N4)cc2)cn1C [Compound 16a, (S)-methyl 4-(4-(4-(7-methoxy-5-oxo-2,3,5,11a-tetrahydro-1H-pyrrolo[2,1-c][1,4]benzodiazepine-8-yloxy)butanamido)phenyl)-1-methyl-1H-pyrrole-2-carboxylate]
IC50 (A431 (epidermoid); A-431, 96 h): 2.31 nM | IC50 (MCF7 (breast); MCF7, 96 h): 1.91 nM | IC50 (Mia Paca 2; MIA PaCa-2, 96 h): 1.2 nM | IC50 (MDAMB-231 (breast); MDA-MB-231, 96 h): 2.11 nM | IC50 (primary CLL cells): 6.2 nM | IC50 (A549 (lung); A549, 96 h): 7.5 nM | IC50 (A2780 (ovarian); A2780, 96 h): 1.87 nM | IC50 (WI38; WI-38, 96 h): 160 nM

COC(=O)c1cc(-c2ccc(NC(=O)c3cc(-c4ccc(NC(=O)CCCOc5cc6c(cc5OC)C(=O)N5CCC[C@H]5C=N6)cc4)cn3C)cc2)cn1C [Compound 16b, (S)-methyl 4-(4-(4-(4-(4-(7-methoxy-5-oxo-2,3,5,11a-tetrahydro-1H-pyrrolo[2,1-c][1,4]benzodiazepine-8-yloxy)butanamido)phenyl)-1-methyl-1H-pyrrole-2-carboxamido)phenyl)-1-methyl-1H-pyrrole-2-carboxylate]
IC50 (A431 (epidermoid); A-431, 96 h): 2.91 nM | IC50 (MCF7 (breast); MCF7, 96 h): 0.9 nM | IC50 (Mia Paca 2; MIA PaCa-2, 96 h): 0.35 nM | IC50 (MDAMB-231 (breast); MDA-MB-231, 96 h): 0.46 nM | IC50 (primary CLL cells): 4.7 nM | IC50 (A549 (lung); A549, 96 h): 0.54 nM | IC50 (A2780 (ovarian); A2780, 96 h): 0.56 nM | IC50 (WI38; WI-38, 96 h): 159 nM

COC(=O)c1cc(NC(=O)c2cc(-c3ccc(NC(=O)CCCOc4cc5c(cc4OC)C(=O)N4CCC[C@H]4C=N5)cc3)cn2C)cn1C [Compound 16c, (S)-methyl 4-(4-(4-(4-(7-methoxy-5-oxo-2,3,5,11a-tetrahydro-1H-pyrrolo[2,1-c][1,4]benzodiazepine-8-yloxy)butanamido)phenyl)-1-methyl-1H-pyrrole-2-carboxamido)-1-methyl-1H-pyrrole-2-carboxylate]
IC50 (A431 (epidermoid); A-431, 96 h): 4.6 nM | IC50 (MCF7 (breast); MCF7, 96 h): 1.7 nM | IC50 (Mia Paca 2; MIA PaCa-2, 96 h): 0.34 nM | IC50 (MDAMB-231 (breast); MDA-MB-231, 96 h): 2.7 nM | IC50 (primary CLL cells): 2.1 nM | IC50 (A549 (lung); A549, 96 h): 0.019 nM | IC50 (A2780 (ovarian); A2780, 96 h): 0.96 nM | IC50 (WI38; WI-38, 96 h): 426 nM

CCOC(=O)c1nc(NC(=O)c2cc(-c3ccc(NC(=O)CCCOc4cc5c(cc4OC)C(=O)N4CCC[C@H]4C=N5)cc3)cn2C)cn1C [Compound 16d, (S)-ethyl 4-(4-(4-(4-(7-methoxy-5-oxo-2,3,5,11a-tetrahydro-1H-pyrrolo[2,1-c][1,4]benzodiazepine-8-yloxy)butanamido)phenyl)-1-methyl-1H-pyrrole-2-carboxamido)-1-methyl-1H-imidazole-2-carboxylate]
IC50 (A431 (epidermoid); A-431, 96 h): 0.19 nM | IC50 (MCF7 (breast); MCF7, 96 h): 0.37 nM | IC50 (Mia Paca 2; MIA PaCa-2, 96 h): 0.11 nM | IC50 (MDAMB-231 (breast); MDA-MB-231, 96 h): 0.45 nM | IC50 (primary CLL cells): 3 nM | IC50 (A549 (lung); A549, 96 h): 0.47 nM | IC50 (A2780 (ovarian); A2780, 96 h): 0.15 nM | IC50 (WI38; WI-38, 96 h): 1240 nM

COC(=O)c1cc(-c2ccc(NC(=O)c3cc(NC(=O)CCCOc4cc5c(cc4OC)C(=O)N4CCC[C@H]4C=N5)cn3C)cc2)cn1C [Compound 16e, (S)-methyl 4-(4-(4-(4-(7-methoxy-5-oxo-2,3,5,11a-tetrahydro-1H-pyrrolo[2,1-c][1,4]benzodiazepine-8-yloxy)butanamido)-1-methyl-1H-pyrrole-2-carboxamido)phenyl)-1-methyl-1H-pyrrole-2-carboxylate]
IC50 (A431 (epidermoid); A-431, 96 h): 0.0056 nM | weight loss [1]: minor weight loss | IC50 (Mia Paca 2; MIA PaCa-2, 96 h): 0.0013 nM | IC50 (primary CLL cells): 0.098 nM | IC50 (A549 (lung); A549, 96 h): 0.056 nM | IC50 (A2780 (ovarian); A2780, 96 h): 0.013 nM | IC50 (WI38; WI-38, 96 h): 474 nM

COC(=O)c1cc(NC(=O)c2cc(NC(=O)c3cc(-c4ccc(NC(=O)CCCOc5cc6c(cc5OC)C(=O)N5CCC[C@H]5C=N6)cc4)cn3C)cn2C)cn1C [Compound 16g, (S)-methyl 4-(4-(4-(4-(4-(7-methoxy-5-oxo-2,3,5,11a-tetrahydro-1H-pyrrolo[2,1-c][1,4]benzodiazepine-8-yloxy)butanamido)phenyl)-1-methyl-1H-pyrrole-2-carboxamido)-1-methyl-1H-pyrrole-2-carboxamido)-1-methyl-1H-pyrrole-2-carboxylate]
IC50 (A431 (epidermoid); A-431, 96 h): 0.86 nM | IC50 (MCF7 (breast); MCF7, 96 h): 0.31 nM | IC50 (Mia Paca 2; MIA PaCa-2, 96 h): 0.31 nM | IC50 (MDAMB-231 (breast); MDA-MB-231, 96 h): 0.59 nM | IC50 (primary CLL cells): 0.96 nM | IC50 (A549 (lung); A549, 96 h): 2.3 nM | IC50 (A2780 (ovarian); A2780, 96 h): 0.24 nM | IC50 (WI38; WI-38, 96 h): 41.3 nM

COC(=O)c1cc(NC(=O)c2nc(NC(=O)c3cc(-c4ccc(NC(=O)CCCOc5cc6c(cc5OC)C(=O)N5CCC[C@H]5C=N6)cc4)cn3C)cn2C)cn1C [Compound 16h, (S)-methyl 4-(4-(4-(4-(4-(7-methoxy-5-oxo-2,3,5,11a-tetrahydro-1H-pyrrolo[2,1-c][1,4]benzodiazepine-8-yloxy)butanamido)phenyl)-1-methyl-1H-pyrrole-2-carboxamido)-1-methyl-1H-imidazole-2-carboxamido)-1-methyl-1H-pyrrole-2-carboxylate]
IC50 (A431 (epidermoid); A-431, 96 h): 0.306 nM | IC50 (MCF7 (breast); MCF7, 96 h): 0.075 nM | IC50 (Mia Paca 2; MIA PaCa-2, 96 h): 0.25 nM | IC50 (MDAMB-231 (breast); MDA-MB-231, 96 h): 0.015 nM | IC50 (primary CLL cells): 0.037 nM | IC50 (A549 (lung); A549, 96 h): 0.45 nM | IC50 (WI38; WI-38, 96 h): 65.6 nM

COC(=O)c1ccc(NC(=O)c2ccc(NC(=O)CCCOc3cc4c(cc3OC)C(=O)N3CCC[C@H]3C=N4)n2C)n1C [GWL-78, reference compound]
IC50 (A431 (epidermoid); A-431, 96 hours exposure, MTT): 0.55 nM | increase in DNA binding affinity compared to constituent PBD and dipyrrole components (DNA): up to 50 fold | IC50 (MCF7 (breast); MCF7, 96 hours exposure, MTT): 0.32 nM | IC50 (Mia Paca 2; MIA PaCa-2, 96 hours exposure, MTT): 2.4 nM | IC50 (MDAMB-231 (breast); MDA-MB-231, 96 hours exposure, MTT): 0.12 nM | IC50 (primary CLL cells; primary CLL cells, annexin V/propidium iodide, apoptosis, read-out: IC50): 1.3 nM | IC50 (A549 (lung); A549, 96 hours exposure, MTT): 6.1 nM | IC50 (A2780 (ovarian); A2780, 96 hours exposure, MTT): 0.57 nM | IC50 (WI38; WI-38, 96 hours exposure, MTT, non-cancer cell line): 41.3 nM

— US9376440B2, “Pyrrolobenzodiazepines as antiproliferative agents” (MEDIMMUNE LIMITED, priority 2012, dated 2016)
